The values that follow come from PubChem BioAssay AID328 (DTP/NCI, 2004).

Several values for one entry are separate records, joined by “and”; a condition that tells them apart may be missing. Equal entries are not always repeated. Toxic doses and inconclusive results are not listed.

The assay relates to BDF1 mice, P388 leukemia ip, median survival T/C. The experiment in a line: NCI In Vivo Anticancer Drug Screen. Data for tumor model P388 Leukemia (intraperitoneal) in B6D2F1 (BDF1) mice. The following applies: endpoint: median survival time, higher = longer survival. The essentials:
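Reported as T/C, where T is the survival measurement in dosed animals and C the same measurement in vehicle controls.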

[1] abbreviates: dose: 50.0 mg/kg/injection, schedule: Q01DX005 (ip), vehicle: saline with Tween-80.
The mark [2] stands for this setting: dose: 100.0 mg/kg/injection, schedule: Q01DX005 (ip), vehicle: saline with Tween-80.
Where [3] appears, read: dose: 200.0 mg/kg/injection, schedule: Q01DX005 (ip), vehicle: saline with Tween-80.

In the case of `COC1=C(N)C(=O)c2nc(-c3nc(C(=O)O)c(C)c(-c4ccc(OC)c(OC)c4O)c3N)ccc2C1=O`, the T/C runs as follows: (dose: 0.01 mg/kg/injection, schedule: Q01DX010 (ip), vehicle: saline) 110 % of control; (dose: 0.02 mg/kg/injection, schedule: Q01DX009 (ip), vehicle: other) 118 % of control; (dose: 0.03 mg/kg/injection, schedule: Q01DX009 (ip), vehicle: dioxane) 97 % of control; (dose: 0.03 mg/kg/injection, schedule: Q01DX009 (ip), vehicle: saline) 114 % of control; (dose: 0.04 mg/kg/injection, schedule: Q01DX009 (ip), vehicle: dioxane) 99 % of control and 100 % of control; (dose: 0.05 mg/kg/injection, schedule: Q01DX009 (ip), vehicle: dioxane) 114 % of control. Also, the T/C (dose: 0.05 mg/kg/injection, schedule: Q01DX009 (ip), vehicle: saline) was 161 % of control; the T/C (dose: 0.05 mg/kg/injection, schedule: Q01DX010 (ip), vehicle: water) is 118 % of control; the T/C (dose: 0.05 mg/kg/injection, schedule: Q04DX002 (ip), vehicle: saline) is 112 % of control; the T/C (dose: 0.06 mg/kg/injection, schedule: Q01DX009 (ip), vehicle: dioxane) is 114 % of control; the T/C (dose: 0.1 mg/kg/injection, schedule: Q01DX009 (ip), vehicle: saline) was 152 % of control; the T/C (dose: 0.1 mg/kg/injection, schedule: Q01DX010 (ip), vehicle: saline) was 118 % of control. For the same molecule, the T/C is, setting by setting: (dose: 0.1 mg/kg/injection, schedule: Q04DX003 (ip), vehicle: other) 118 % of control; (dose: 0.13 mg/kg/injection, schedule: Q01DX009 (oral), vehicle: other) 109 % of control; (dose: 0.2 mg/kg/injection, schedule: Q01DX001 (ip), vehicle: other) 118 % of control; (dose: 0.2 mg/kg/injection, schedule: Q01DX010 (ip), vehicle: water) 118 % of control; (dose: 0.2 mg/kg/injection, schedule: Q04DX002 (ip), vehicle: saline) 114 % of control; (dose: 0.2 mg/kg/injection, schedule: Q04DX003 (ip), vehicle: other) 118 % of control. In addition, the T/C is 118 % of control (dose: 0.2 mg/kg/injection, schedule: Q08DX002 (ip), vehicle: other); 109 % of control (dose: 0.25 mg/kg/injection, schedule: Q01DX009 (oral), vehicle: other); 118 % of control (dose: 0.4 mg/kg/injection, schedule: Q01DX001 (ip), vehicle: other); 122 % of control (dose: 0.5 mg/kg/injection, schedule: Q01DX001 (ip), vehicle: other); 109 % of control (dose: 0.5 mg/kg/injection, schedule: Q01DX009 (oral), vehicle: other); 109 % of control (dose: 0.5 mg/kg/injection, schedule: Q03HX008 (ip), vehicle: other). Besides, the T/C is 116 % of control (dose: 0.5 mg/kg/injection, schedule: Q04DX003 (ip), vehicle: other); 113 % of control (dose: 0.8 mg/kg/injection, schedule: Q01DX001 (ip), vehicle: other); 117 % of control (dose: 0.8 mg/kg/injection, schedule: Q01DX009 (ip), vehicle: saline); 118 % of control (dose: 0.8 mg/kg/injection, schedule: Q04DX003 (ip), vehicle: other); 109 % of control (dose: 0.8 mg/kg/injection, schedule: Q08DX002 (ip), vehicle: other); 109 % of control (dose: 1.0 mg/kg/injection, schedule: Q01DX001 (ip), vehicle: other). For the same molecule, the T/C is 118 % of control (dose: 1.0 mg/kg/injection, schedule: Q01DX001 (oral), vehicle: other); 100 % of control (dose: 1.0 mg/kg/injection, schedule: Q01DX009 (oral), vehicle: other); 109 % of control (dose: 1.0 mg/kg/injection, schedule: Q03HX008 (ip), vehicle: other); 100 % of control (dose: 1.0 mg/kg/injection, schedule: Q08DX002 (ip), vehicle: other); 100 % of control (dose: 2.0 mg/kg/injection, schedule: Q01DX001 (oral), vehicle: other); 95 % of control (dose: 2.0 mg/kg/injection, schedule: Q01DX009 (oral), vehicle: other). Besides, the T/C reads like this: (dose: 4.0 mg/kg/injection, schedule: Q01DX001 (oral), vehicle: other) 95 % of control; (dose: 31.2 micrograms/kg/injection, schedule: Q01DX009 (ip), vehicle: other) 116 % of control; (dose: 62.5 micrograms/kg/injection, schedule: Q03HX016 (ip), vehicle: other) 116 % of control; (dose: 62.5 micrograms/kg/injection, schedule: Q03HX024 (ip), vehicle: other) 116 % of control; (dose: 125.0 micrograms/kg/injection, schedule: Q03HX016 (ip), vehicle: other) 100 % of control; (dose: 125.0 micrograms/kg/injection, schedule: Q03HX024 (ip), vehicle: other) 91 % of control. The T/C (dose: 250.0 micrograms/kg/injection, schedule: Q01DX009 (ip), vehicle: other) is 116 % of control and the T/C (dose: 667.0 micrograms/kg/injection, schedule: Q04DX003 (ip), vehicle: alkali diluted with saline) is 120 % of control.
Turning to `COc1c2c(c(OC)c3ccccc13)C(=O)c1ccccc1C2=O`, the T/C (dose: 25.0 mg/kg/injection, schedule: Q01DX005 (ip), vehicle: saline) is 115 % of control; the T/C (dose: 50.0 mg/kg/injection, schedule: Q01DX005 (ip), vehicle: saline) was 87 % of control; the T/C (dose: 100.0 mg/kg/injection, schedule: Q01DX005 (ip), vehicle: saline) was 95 % of control; the T/C (dose: 200.0 mg/kg/injection, schedule: Q01DX005 (ip), vehicle: saline) is 93 % of control.
As to `CCCCCCCCO/N=C\c1c2c(O)c3c(O)c(C)c4c(c3c1O)C(=O)C(C)(O/C=C\C(OC)C(C)C(OC(C)=O)C(C)C(O)C(C)C(O)C(C)/C=C\C=C(\C)C(=O)N2)O4` (stereo unspecified), the T/C (dose: 100.0 mg/kg/injection, schedule: Q01DX009 (ip), vehicle: Klucel (hydroxypropylcellulose) (HPC)) is 100 % of control and the T/C (dose: 200.0 mg/kg/injection, schedule: Q01DX009 (ip), vehicle: Klucel (hydroxypropylcellulose) (HPC)) was 100 % of control.
As to `COc1cc2c(cc1OC)[C@H]1Cc3cc(OC)c(OC)cc3[C@@H](C2)N1C(C)=O`, the T/C by setting is: under setting [1], 91 % of control; under setting [2], 91 % of control; under setting [3], 93 % of control.
Turning to `O=NN(CCCl)C(=O)NC1CCC(=O)NC1=O` (stereo unspecified), the T/C is 272 % of control (dose: 3.13 mg/kg/injection, schedule: Q04DX003 (ip), vehicle: saline with Tween-80); 230 % of control (dose: 4.0 mg/kg/injection, schedule: Q04DX003 (ip), vehicle: saline with Tween-80); 230 % of control (dose: 6.0 mg/kg/injection, schedule: Q04DX003 (ip), vehicle: saline with Tween-80); 272 % of control (dose: 6.25 mg/kg/injection, schedule: Q04DX003 (ip), vehicle: saline with Tween-80); 250 % of control (dose: 9.0 mg/kg/injection, schedule: Q04DX003 (ip), vehicle: gum acacia); 230 % of control (dose: 9.0 mg/kg/injection, schedule: Q04DX003 (ip), vehicle: saline with Tween-80). In addition, the T/C is 104 % of control (dose: 12.5 mg/kg/injection, schedule: Q04DX003 (ip), vehicle: saline with Tween-80) and 112 % of control (dose: 20.0 mg/kg/injection, schedule: Q04DX003 (ip), vehicle: gum acacia).
For `C(=C(\Cc1ccccc1)c1ccccc1)/c1ccccc1`, the T/C was 99 % of control under setting [1], 103 % of control under setting [2] and 103 % of control under setting [3].
As for `CC1CC(=O)C(O)C2(C)C1CC1OC(=O)C(OC(=O)c3ccccc3)C3C(C)C(O)C4(O)OCC13C42` (stereo unspecified), the T/C is, setting by setting: (dose: 0.12 mg/kg/injection, schedule: Q01DX009 (ip), vehicle: saline with Tween-80) 110 % of control; (dose: 0.25 mg/kg/injection, schedule: Q01DX009 (ip), vehicle: saline with Tween-80) 121 % of control; (dose: 1.0 mg/kg/injection, schedule: Q01DX009 (ip), vehicle: saline with Tween-80) 118 % of control; (dose: 2.0 mg/kg/injection, schedule: Q01DX009 (ip), vehicle: saline with Tween-80) 121 % of control; (dose: 4.0 mg/kg/injection, schedule: Q01DX009 (ip), vehicle: saline with Tween-80) 112 % of control; (dose: 8.0 mg/kg/injection, schedule: Q01DX009 (ip), vehicle: saline with Tween-80) 116 % of control. The T/C (dose: 16.0 mg/kg/injection, schedule: Q01DX009 (ip), vehicle: saline with Tween-80) is 118 % of control.
